Data from patent publication US8980944B2 (Gemmus Pharma Inc., priority 2006, dated 2015).
Values joined by “and” are separate entries in the source; they are usually repeats but may differ in a detail not shown here. Equal entries are not always repeated.

Assays:
TNFα [1] = assay: Poly(I:C)-stimulated human peripheral blood lymphocytes, TNFα release (ELISA)
IL-12 [2] = conditions: DC activated in the presence of PGE2; Hilkens et al. 1996; cited from earlier work
TNFα [3] = assay: Poly(I:C)-stimulated human monocyte-derived dendritic cells, TNFα release (ELISA); assay type: cell-based; conditions: Poly IC-stimulated monocyte-derived dendritic cells, one micromolar, 18 hours
IL-12 [4] = assay: LPS-stimulated human monocyte-derived dendritic cells, IL-12 release (ELISA); conditions: 1 μM; human monocyte-derived dendritic cells, LPS stimulation; individual donors 1-4
TNFα [5] = assay: TNFα release from human monocyte-derived dendritic cells activated with LPS, CD40 ligand or CpG-DNA (ELISA); assay type: cell-based; conditions: 1 μM; for TNFα in culture supernatant: 18 hours
Experimental: Human donor monocyte-derived dendritic cells were cultured in RPMI-1640 containing 10% fetal bovine serum for six days in the presence of 10 ng/mL IL-4 and 200 ng/mL GM-CSF. The cells were activated with various activation stimuli: 10 ng/mL LPS (Sigma), 5 μg/mL Recombinant human CD-40 ligand (R&D Systems), or 5 μM Human CpG-DNA (HyCult Biotechnology) in the presence of prostaglandin E2 (PGE2) (1 μM), vehicle control (DMSO) or test substances (1 μM) for 18 hours. The levels of cell culture supernatant TNFα for individual donors was measured by commercial ELISA kits.

H5N1 influenza virus = conditions: mice infected with H5N1 influenza virus, treated; cited from earlier work
[6] = CD40 ligand 5 μg/mL, Donor 3, Vehicle 567.1
[7] = CD40 ligand 5 μg/mL, Donor 4, Vehicle 546.3
[8] = CD40 ligand 5 μg/mL, Donor 6, Vehicle 541.8
[9] = CpG 5 μM, Donor 1, Vehicle 2155.9
[10] = CpG 5 μM, Donor 3, Vehicle 1340.7
[11] = CpG 5 μM, Donor 6, Vehicle 467.8
[12] = LPS 10 ng/mL, Donor 4, Vehicle 3566.9
[13] = LPS 10 ng/mL, Donor 6, Vehicle 10750.1

SMILES: CC#CCC(C)[C@H](O)/C=C/[C@@H]1[C@H]2c3cccc(CCCC(=O)O)c3O[C@H]2C[C@H]1O (relative stereo) [Beraprost, (+/−)-(1R*,2R*,3 as*,8bS*)-2,3,3a,8b-tetrahydro-2-hydroxy-1-[(E)-(3S*)-3-hydroxy-4-methyl-1-octen-6-ynyl]-1H-cyclopenta[b]benzofuran-5-butyrate]
- TNFα percent inhibition from untreated control (TNFα [1]; Beraprost 0.04 nM, Poly IC-stimulated peripheral blood lymphocytes, individual donors 1-2): 4%
- TNFα percent inhibition from untreated control (TNFα [1]; Beraprost 0.11 nM, Poly IC-stimulated peripheral blood lymphocytes, individual donors 1-2): 26%
- TNFα percent inhibition from untreated control (TNFα [1]; Beraprost 1 nM, Poly IC-stimulated peripheral blood lymphocytes, individual donors 1-2): 11% and 28%
- TNFα percent inhibition from untreated control (TNFα [1]; Beraprost 3 nM, Poly IC-stimulated peripheral blood lymphocytes, individual donors 1-2): 36% and 11%
- TNFα percent inhibition from untreated control (TNFα [1]; Beraprost 9 nM, Poly IC-stimulated peripheral blood lymphocytes, individual donors 1-2): 35%
- TNFα percent inhibition from untreated control (TNFα [1]; Beraprost 250 nM, Poly IC-stimulated peripheral blood lymphocytes, individual donors 1-2): 59%
- inhibition at 0.00011 µM (TNFα [1]; Homo sapiens, Lymphocyte, read-out: TNFα percent inhibition from untreated control, Beraprost 0.11 nM, Poly IC-stimulated peripheral blood lymphocytes, individual donors 1-2): 19%
- inhibition at 0.009 µM (TNFα [1]; Homo sapiens, Lymphocyte, read-out: TNFα percent inhibition from untreated control, Beraprost 9 nM, Poly IC-stimulated peripheral blood lymphocytes, individual donors 1-2): 46%
- inhibition at 0.083 µM (TNFα [1]; Homo sapiens, Lymphocyte, read-out: TNFα percent inhibition from untreated control, Beraprost 83 nM, Poly IC-stimulated peripheral blood lymphocytes, individual donors 1-2): 56%
- inhibition at 0.25 µM (TNFα [1]; Homo sapiens, Lymphocyte, read-out: TNFα percent inhibition from untreated control, Beraprost 250 nM, Poly IC-stimulated peripheral blood lymphocytes, individual donors 1-2): 67%
- Poly(I:C)-induced TNFα (TNFα [1]; peripheral blood lymphocytes): significant descrease

SMILES: CCCCC[C@H](O)/C=C/[C@H]1[C@H](O)CC(=O)[C@@H]1C/C=C\CCCC(=O)O [PGE2, prostaglandin E2, reference compound]
- IL-12 production by dendritic cells (IL-12 [2]): impaired IL-12 production
- TNFα percent inhibition from untreated control (TNFα [3]; Donor 1): 96%
- TNFα percent inhibition from untreated control (TNFα [3]; Donor 2): 63%
- TNFα percent inhibition from untreated control (TNFα [3]; Donor 3): 81%
- TNFα percent inhibition from untreated control (TNFα [3]; Donor 4): 29%
- Percent inhibition of IL-12 compared to uninhibited control (IL-12 [4]): 80% and 33% and 83% and 72%
- TNFα in culture supernatant (TNFα [5]; [6]): 147.9 pg/mL
- TNFα in culture supernatant (TNFα [5]; [7]): 87.0 pg/mL
- TNFα in culture supernatant (TNFα [5]; [8]): 54.2 pg/mL
- TNFα in culture supernatant (TNFα [5]; [9]): 104.5 pg/mL
- TNFα in culture supernatant (TNFα [5]; [10]): 70.0 pg/mL
- TNFα in culture supernatant (TNFα [5]; [11]): 106.2 pg/mL
- TNFα in culture supernatant (TNFα [5]; [12]): 0.0 pg/mL
- TNFα in culture supernatant (TNFα [5]; [13]): 174.8 pg/mL

SMILES: CCOC(=O)C1=C[C@@H](OC(CC)CC)[C@H](NC(C)=O)[C@@H](N)C1 [Tamiflu, oseltamivir]
- survival of infected mice (H5N1 influenza virus): survived

SMILES: CCC1(CC/C=C/C2C(C/C=C\CCCC(=O)O)[C@H](Cl)C[C@H]2O)CCCC1 (stereo partly drawn) [Test Substance 1, (5Z,13E)-(9R,11R)-9-chloro-11-hydroxy-17,17-tetramethylene-20-nor-5,13-prostadienoic acid]
- cytokine levels measured in the culture supernatant (TNFα [5]; LPS, CD40 ligand or CpG activation): led to an inhibition in the cytokine levels
- TNFα in culture supernatant (TNFα [5]; [6]): 274.3 pg/mL
- TNFα in culture supernatant (TNFα [5]; [7]): 226.8 pg/mL
- TNFα in culture supernatant (TNFα [5]; [8]): 142.4 pg/mL
- TNFα in culture supernatant (TNFα [5]; [9]): 291.3 pg/mL
- TNFα in culture supernatant (TNFα [5]; [10]): 599.4 pg/mL
- TNFα in culture supernatant (TNFα [5]; [11]): 115.9 pg/mL
- TNFα in culture supernatant (TNFα [5]; [12]): 643.6 pg/mL
- TNFα in culture supernatant (TNFα [5]; [13]): 753.7 pg/mL
